Experimental data taken from article PMC6349905 (Cell Death Discovery, 2019).
Where two headings read alike, the source gives them in different places.

Assays:
control HeLa cells = assay: Cell viability assay (CellTiter Glo), control cells; format: cell-based, human; settings: 24 h, mean ± SD
Description: (§1) HeLa human cervical cancer cells were from American Type Culture Collection (ATCC, Manassas, VA). Control, TMEM97 KO, PGRMC1 KO and TMEM97/PGRMC1 double KO HeLa cell lines were grown in MEM containing 10% fetal bovine serum, 2 mM L-glutamine, 1% non-essential amino acids, 100 units/ml penicillin, and 100 μg/ml streptomycin. All the cell lines were maintained at 37 °C in a humidified incubator with a 5% CO2/95% air atmosphere.

TMEM97 KO HeLa cells = assay: Cell viability assay (CellTiter Glo), TMEM97 KO cells; format: cell-based, human; settings: 24 h, mean ± SD
Description: as §1

[1] = system: TMEM97/PGRMC1 double KO HeLa cells; assay: Cell viability assay (CellTiter Glo), double KO cells; format: cell-based, human; settings: 24 h, mean ± SD
Description: as §1

PGRMC1 KO HeLa cells = assay: Cell viability assay (CellTiter Glo), PGRMC1 KO cells; format: cell-based, human; settings: 24 h, mean ± SD
Description: as §1

[2] = system: control, TMEM97 KO, PGRMC1 KO and double KO HeLa cells; assay: Cell viability assay across control and knockout HeLa cell lines (results in words); settings: for block of sigma-2 ligand-induced cytotoxicity: 30 µM, 1 h pre-incubation, then with sigma-2 agonists 24 h, all four cell lines; for cytotoxicity in control and knockout cells: TMEM97 KO, PGRMC1 KO and double KO HeLa cells
Description: In order to study whether sigma-2 ligand-induced cytotoxicity is mediated by sigma-1 receptors, we used a sigma-1 agonist, (+)-pentazocine, or sigma-1 antagonist, NE-100, to block the sigma-1 binding site and then examined sigma-2 ligand-induced cytotoxicity. […] We pre-incubated cells with vehicle (cell culture media), 30 µM (+)-pentazocine, or 30 µM NE-100 for 1 h, then treated cells with sigma-2 agonists in the absence or presence of (+)-pentazocine or NE-100 for 24 h.
The cytotoxicity of compounds was determined using the CellTiter Glo® chemiluminescent assay (Promega, Madison, WI) that measures ATP. Cells were plated in black wall clear bottom 96-well plates at 5000 cells per well 24 h before treatment. Each compound was dissolved in DMSO and serially diluted in culture medium to acquire the desired concentrations. The final concentration of DMSO in the cell culture medium was no more than 1.0%. After 24 h treatment with the various compounds, 25 μl of the CellTiter Glo® Solution Reagent was added to each well. Then plates were immediately read on a Perkin Elmer Enspire® Multimode Plate Reader. Luminescence detected for each well was normalized to the untreated control and data was calculated as percent viability. The EC50, defined as the concentration of the sigma ligand required to inhibit cell proliferation by 50% relative to untreated cells, was determined from the dose–response curves generated using GraphPad Prism version 6 (GraphPad Software, Inc. La Jolla, CA).

sigma-2 receptors [3] = target: T1, sigma-2 receptors (Rattus norvegicus, UniProt Q5U3Y7); assay: Sigma-2 receptor competition binding assay with [3H]DTG; parameters: 60 μg Sprague Dawley rat liver membrane homogenates; from tissue; host or cells: Sprague Dawley rat liver membrane homogenates
T1 sequence (Q5U3Y7 1-176): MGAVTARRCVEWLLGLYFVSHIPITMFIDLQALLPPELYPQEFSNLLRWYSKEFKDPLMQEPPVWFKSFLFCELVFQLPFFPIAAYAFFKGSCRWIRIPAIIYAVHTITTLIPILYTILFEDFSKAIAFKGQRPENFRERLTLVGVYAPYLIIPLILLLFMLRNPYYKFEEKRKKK
Description: (§2) The sigma-1 and sigma-2 receptor binding affinities of sigma-2 ligands were determined using a competition assay as previously described[32],[33]. […] The concentrations of each non-radioactive compound ranged from 0.1 to 10 μM. The non-specific binding was determined in the presence of 10 μM haloperidol. […] The concentrations of each non-radioactive compound ranged from 0.1 nM to 10 μM. 500 nM of (+)-pentazocine was added to mask the sigma-1 receptor binding site. The non-specific binding was determined in the presence 10 μM DTG.
(§3) After incubation, the bound ligands were filtrated with a M-24 Brandel filtration system (Brandel, Gaithersburg, MD, USA), collected on glass fiber papers (Whatman grade 934-AH, GE Healthcare Bio-Sciences, Pittsburgh, PA), and counted with a MicroBeta2 Microplate counter 2450 (Perkin Elmer, Boston, MA). […] Ki values were reported as mean ± SD from at least three independent experiments.

sigma-1 receptors = target: T2, sigma-1 receptors (Cavia porcellus, UniProt Q60492); assay: Sigma-1 receptor competition binding assay with [3H](+)-pentazocine; parameters: species or system guinea pig
T2 construct: 100 μg guinea pig brain membrane homogenates; from tissue; host or cells: guinea pig brain membrane homogenates
T2 sequence (Q60492 whole entry): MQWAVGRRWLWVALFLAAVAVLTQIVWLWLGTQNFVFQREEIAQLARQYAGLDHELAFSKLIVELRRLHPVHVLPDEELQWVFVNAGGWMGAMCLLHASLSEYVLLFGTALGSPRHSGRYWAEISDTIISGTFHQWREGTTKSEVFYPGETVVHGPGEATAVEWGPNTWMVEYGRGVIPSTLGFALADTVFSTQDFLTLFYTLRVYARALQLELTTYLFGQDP
Description: as §2, §3

[4] = system: DTG residual binding site (RBS); assay: DTG RBS competition binding assay, double KO cell membranes; parameters: species or system human; settings: double KO HeLa cell membranes, 45 nM [3H]DTG, 500 nM (+)-pentazocine mask
Description: (§4) The binding affinities of sigma-2 ligands for the DTG RBS were determined using a competition assay as previously described[13],[33] with minor modification. For cell harvesting, TMEM97 KO or TMEM97/PGRMC1 double KO HeLa cells were scraped from culture dishes in ice-cold Phosphate-Buffered Saline (PBS) and collected by centrifugation. The cell pellets were immediately stored at −80 °C until use. For cell membrane homogenate preparation, the cell pellets were re-suspended in 10 mL ice-cold PBS, and homogenized using Wheaton overhead stirrer (120 Vac Overhead Stirrer, Millville, NJ, USA) at the speed of 2 for 30 sec. The cell homogenates were then centrifuged for 20 min at 31,000×g at 4 °C. After centrifugation, the supernatant was discarded and the pellets were re-suspended in 1 mL ice-cold PBS and stored at −80 °C freezer until use. […] 500 nM (+)-pentazocine was added to mask the sigma-1 receptor binding site. The non-specific binding was determined in the presence of 60 μM cold DTG.
as §3

[5] = system: DTG residual binding site (RBS); assay: DTG RBS competition binding assay, TMEM97 KO cell membranes; parameters: species or system human; settings: TMEM97 KO HeLa cell membranes, 45 nM [3H]DTG, 500 nM (+)-pentazocine mask
Description: as §4, §3

[6] = system: caspase-3 activation in control and knockout HeLa cells; assay: Caspase-Glo 3/7 assay; format: cell-based, human; settings: 24 h, TMEM97 KO and PGRMC1 KO cell lines
Description: HeLa cells were plated in white opaque 96-well plate at a cell density of 5000 cells per well for 24 h. […] Caspase-3/7 activity was measured by using the Caspase-Glo 3/7 Assay (Promega).

[7] = system: control, TMEM97 KO, PGRMC1 KO and double KO HeLa cells; assay: Internalization of SW120 (confocal imaging); format: cell-based, human; settings: 100 nM, room temperature
Description: HeLa cells were plated on 35-mm-diameter glass-bottom dishes at 2 × 10^5 cells per dish and incubated for 24 h. Prior to imaging, media was removed and fresh media containing 100 nM SW120 was added to the dishes. SW120 uptake in the live cells at room temperature was imaged using an inverted confocal microscope (Leica STED 3× super-resolution microscope). Images were acquired at 25 s intervals using a ×10 objective lens (using an excitation wavelength of 488 nm, and a 505 to 540 nm bandpass filter). Five optical slices at 2-μm intervals were scanned using the Z-stack function of the Leica imaging software. The brightest optical slice out of the five Z-stack optical slices was chosen for fluorescent intensity analysis. Twenty cells were analyzed in each dish using Fiji, an open-source platform based on ImageJ[35]. The fluorescent intensity was calculated as an average of 60 cells from three independent experiments (mean ± SEM).

[8] = target: DTG residual binding site (RBS); parameters: method as in PMID 30443021; settings: double KO HeLa cell membranes; read-out: Kd for the [3H]DTG RBS, double KO cell membranes; cited from earlier work
sigma-2 receptors [9] = target: T1, sigma-2 receptors; settings: rat liver membranes, 500 nM (+)-pentazocine mask
Description: binding, the nonspecific binding was determined inthe presence of
was added to mask the sigma-1 receptor binding site and the
nonspecific binding was determined in the presence 10 μM DTG.
The Kd and Bmax values were determined by a nonlinear regression
analysis using GraphPad Prism software.
The Kd and Bmax values were
reported as mean ± SD in at least three independent experiments

[10] = target: DTG residual binding site (RBS); parameters: method as in PMID 30443021; settings: TMEM97 KO HeLa cell membranes; read-out: Kd for the [3H]DTG RBS, TMEM97 KO cell membranes; cited from earlier work
[11] = rat liver membranes, 5 nM [3H]DTG, 500 nM (+)-pentazocine mask, mean ± SD, read-out: Ki for sigma-2 receptors
[12] = guinea pig brain membranes, 5 nM [3H](+)-pentazocine, mean ± SD, read-out: Ki for sigma-1 receptors

| Compound | cytotoxicity in control and knockout cells [2] | EC50 (control HeLa cells; Homo sapiens) [µM] | EC50 (TMEM97 KO HeLa cells; Homo sapiens) [µM] | Ki (sigma-2 receptors [3]; [11]) [µM] | EC50 ([1]; Homo sapiens) [µM] | EC50 (PGRMC1 KO HeLa cells; Homo sapiens) [µM] | Ki (sigma-1 receptors; [12]) [µM] | Ki [4] [µM] | Ki [5] [µM] | other results |
| --- | --- | --- | --- | --- | --- | --- | --- | --- | --- | --- |
| CC(C)=CCN1CC[C@]2(C)c3cc(O)ccc3C[C@H]1[C@H]2C [(+)-pentazocine] | did not exhibit cytotoxicity | – | – | – | – | – | – | – | – | EC50 (control HeLa cells): > 200 µM; EC50 (TMEM97 KO HeLa cells): > 200 µM; EC50 [1]: > 200 µM; EC50 (PGRMC1 KO HeLa cells): > 200 µM; block of sigma-2 ligand-induced cytotoxicity [2]: neither (+)-pentazocine nor NE-100 blocked sigma-2 ligand-induced cytotoxicity |
| COc1cc2c(cc1OC)CN(CCCCNC(=O)c1cc(C)ccc1OCCF)CC2 [ISO-1] | did not exhibit | > 200 | > 200 | 0.002 ± 0.0006 | > 200 | > 200 | 0.0239 ± 0.0019 | – | – | – |
| CCCN(CCC)CCc1ccc(OC)c(OCCc2ccccc2)c1 [NE-100] | did not exhibit cytotoxicity | – | – | – | – | – | – | – | – | EC50 (control HeLa cells): > 200 µM; EC50 (TMEM97 KO HeLa cells): > 200 µM; EC50 [1]: > 200 µM; EC50 (PGRMC1 KO HeLa cells): > 200 µM; block of sigma-2 ligand-induced cytotoxicity [2]: neither (+)-pentazocine nor NE-100 blocked sigma-2 ligand-induced cytotoxicity |
| COc1cccc2c1CCCC2CCCN1CCN(C2CCCCC2)CC1 (stereo not drawn) [PB28, 1-Cyclohexyl-4-[3-(5-methoxy-1,2,3,4-tetrahydronaphthalen-1-yl)propyl]piperazine] | – | 58.2 ± 5.9 | 59.8 ± 10.7 | 0.0011 ± 0.0003 | 57.4 ± 6.9 | 59.4 ± 8 | – | 0.0052 | 0.0087 | – |
| COc1cc2c(cc1OC)CN(CCCCNC(=O)c1cc(C)ccc1OC)CC2 [RHM-1] | did not exhibit | > 200 | > 200 | – | > 200 | > 200 | 1.93 ± 0.625 | – | – | – |
| COc1cc2c(cc1OC)CN(CCCCNC(=O)c1cc(I)cc(OC)c1OC)CC2 [RHM-4] | – | > 200 | > 200 | 0.0024 ± 0.0002 | > 200 | > 200 | 3.61 ± 0.533 | > 100 | > 100 | – |
| COc1ccc(C)cc1NC(=O)OC1CC2CCCC(C1)N2CCCCCCCCCCN (stereo not drawn) [SW43] | – | 33.7 ± 8.6 | 30.4 ± 3.4 | – | 32.8 ± 3.8 | 33.2 ± 1.6 | 0.278 ± 0.065 | 8.62 | 33.5 | Ki (sigma-2 receptors [3]): 0.0129 ± 0.0023 µM; EC50 of caspase-3/7 activation, comparison of cell lines [6]: identical |
| COc1ccc(C)cc1NC(=O)OC1CC2CCCC(C1)N2CCCCCCCCCCNc1ccc([N+](=O)[O-])c2nonc12 (stereo not drawn) [SW120] | – | – | – | – | – | – | 1.94 ± 0.262 | – | – | Ki (sigma-2 receptors [3]): 0.001 ± 0.0003 µM; uptake signals at 60, 90 and 120 min, all cell lines [7]: essentially the same for all the cell lines; internalization rate in knockout cells compared to control cells ([7]; 25-sec intervals for 18 min, TMEM97 KO, PGRMC1 KO and double KO cells): reduced internalization rates |
| Fc1ccc(-n2cc(CCCCN3CCC4(CC3)OCc3ccccc34)c3ccccc32)cc1 [Siramesine, siramesine] | – | 12.1 ± 1.7 | 10.3 ± 1.49 | – | 10 ± 1.3 | 10.7 ± 0.7 | – | 0.0497 | 0.115 | Ki (sigma-1 receptors): 0.003 ± 0.0005 µM |
| Cc1ccccc1NC(=N)Nc1ccccc1C [[^3H]DTG, 1,3-Di-o-tolylguanidine] | – | – | – | – | – | – | – | – | – | Kd [8]: 0.403 µM; Bmax of [3H]DTG (sigma-2 receptors [9]): 8958.0 ± 924.9 fmol/mg; Kd [10]: 0.302 µM |
